Measurements: a melting point compilation (Tetko et al.; mined from patent text by program, amines drawn as free bases though some values may be those of a salt)

Compound `COc1ccc2c(c1)CC(=O)c1sccc1C2=C1CCN(C)CC1` has a melting point of 157 to 158 °C.
For `COc1cc2c(cc1OC)C1=C(CC2)NC(=O)CC1`, the melting point was 270 to 271 °C.
Work on `CC(O)C1CCC2C3CCC4=CC(=O)CCC4(C)C3CCC12C` (centres undefined) yielded a melting point of 163 to 166 °C.
With `CC(C)(C)Nc1c(NCc2ccc(OC(F)(F)F)cc2)c(=O)c1=O` the melting point was 292 to 294 °C.
With `CC(=O)NC[C@H]1CN(c2ccc(-n3nccc3-c3ccc(Br)cc3)c(F)c2)C(=O)O1` the melting point was 96.8 to 98.8 °C.
With `CCc1ccc(N(Cc2ccc(C(=O)N(C)C)cc2)C(=O)Nc2c(C(C)C)cccc2C(C)C)cc1` the melting point was 170 to 172 °C.
Work on `Cn1c(=O)c(-c2ccccc2Cl)cc2cnc(NC3C4CN(C(=O)Nc5ccc(CC(=O)O)cc5)CC43)nc21` (centres undefined) yielded a melting point of 190 to 197 °C.
`CC(=O)N(CCC(CCN1CCCCC1)(C(N)=O)c1ccccc1Cl)C(C)C` (centres undefined) showed a melting point of 141 to 147 °C.
`COc1cc(Oc2ccc(S(C)(=O)=O)nc2)cc2cc(C3=NCC(CC(N)=O)S3)[nH]c12` (centres undefined) showed a melting point of 225 to 227 °C.
In the case of `CCC(Cl)c1nc2cccnc2[nH]1` (centres undefined), the melting point is reported as 137 °C.
For `Cc1c(-c2ccccc2)nc2ccc(NC(=O)c3cc4cc(F)ccc4n3Cc3cccc(F)c3)cn12`, the melting point was 258 to 259 °C.
Work on `COc1ccc(-n2ccc(=O)c(-c3ccnn3-c3ccccc3)n2)cc1` yielded a melting point of 179 to 180 °C.
With `Cn1nc2ccc(S)nn2c1=O` the melting point was > 280 °C.
In the case of `CCCCC(CC)C(=O)Nc1ccc(-n2nc3ccc(C(F)(F)F)cc3n2)c(O)c1` (centres undefined), the melting point is reported as 179 to 181 °C.
`CC(C)(C)C1CCC(C(=O)Nc2ccncc2)CC1` (centres undefined) showed a melting point of 150 to 151 °C.
Compound `O=C1CCCC1Oc1cccc2onc(OCC3CCN(CC4(O)CCOCC4)CC3)c12` (centres undefined) has a melting point of 133 °C.
With `CCC(COC)n1nnc2c(Nc3ccc(C(C)=O)cc3Br)nc(C)nc21` (centres undefined) the melting point was 133 to 134 °C.
In the case of `CCCCCCCCCCCCCCCCCCOC(=O)c1cccc(NC(=O)NS(=O)(=O)c2ccc(C)cc2)c1`, the melting point is reported as 96 °C.
Compound `COc1cc(C2CCN(C)CC2)ccc1Nc1ncc2ccc(-c3ccccc3OC)n2n1` has a melting point of 71 to 84 °C.
`COc1ccccc1CCC1CCCCn2c1nc(-c1ccncn1)cc2=O` (racemic) showed a melting point of 155 to 157 °C.
With `O=C1CSC(N2CCN=C(c3ccccc3Cl)c3cc(Cl)ccc32)=N1` the melting point was 217 to 218 °C.
Work on `COc1ccc(C2=C(c3ccc(S(C)(=O)=O)cc3)CCC2)cc1F` yielded a melting point of 128 to 129 °C.
Work on `CCOC(=O)C1=C(C)NC(C)=C(C(=O)OC)C1c1ccccc1C#N` (centres undefined) yielded a melting point of 178 °C.
With `O=C(Nc1nc(C(O)C(=O)O)cs1)OCC(Cl)(Cl)Cl` (centres undefined) the melting point was 135 to 136 °C.
With `CN1C(=O)c2cnc(-c3ccccc3)nc2Nc2ccccc21` the melting point was 227 °C.
`O=C(NCCO)c1cccc(-c2ccc3c(c2)N(c2ccc(Cl)c(Cl)c2)CC3)c1` gave a melting point of 167 to 168 °C.
`CN(C)C(=O)N1Cc2c(-c3noc(C4CC4)n3)ncn2-c2ccc(Cl)cc21` showed a melting point of 254 to 256 °C.
In the case of `O=C(NCc1ncccn1)c1cnc(N2CCC[C@H]2CO)nc1NCc1cccc(Cl)c1`, the melting point is reported as 153 to 156 °C.
With `CC(C)Cn1c(CCCCNC(=O)N2CCOCC2)nc2c(N)nc3ccccc3c21` the melting point was 97 to 100 °C.
Work on `O=C(O)c1cc2c(cn1)[nH]c1ccccc12` yielded a melting point of 307 to 309 °C.
`CCOC(=O)C1CCc2[nH]c3ccccc3c2C1` (centres undefined) showed a melting point of 95 to 96 °C.
For `O=C(O)c1c[nH]c2cc(Cl)c([N+](=O)[O-])cc2c1=O`, the melting point was 294 to 297 °C.
`O=C(Cc1ccccc1)NC1SCCN1Cc1ccc(Cl)nc1` (centres undefined) gave a melting point of 157 to 158 °C.
Compound `CCN(CC)CCSCC(=O)c1ccc2[nH]c3ncc(Cl)cc3c2c1` has a melting point of 137 to 138 °C.
`O=C(NCCO)c1ccc(OCC2(O)CCN(Cc3ccccc3)CC2)cc1` showed a melting point of 161 °C.
In the case of `O=C(NC1CCC1)c1cc([N+](=O)[O-])[nH]n1`, the melting point is reported as 240 °C.
For `O=C(Nc1ccc(Oc2ccnc(NC3CC3)n2)c2ccccc12)c1cc(F)cc(N2CCOCC2)c1`, the melting point was 118 to 120 °C.
Work on `CN1C(=O)CSC(c2cccc(Cl)c2)c2cc(C(N)(c3ccc(Cl)cc3)c3cncn3C)ccc21` (centres undefined) yielded a melting point of 218 °C.
With `COc1cc(C=CC(=O)COc2ccccc2)ccc1O` the melting point was 85 to 87 °C.
`O=C(O)COc1cccc2c1CCc1sc(SCCCC(c3ccccc3)c3ccccc3)nc1-2` gave a melting point of 136 to 138 °C.
In the case of `O=C(NS(=O)(=O)NCCCN1CCC(Oc2ccc(Cl)c(Cl)c2)CC1)c1ccccc1`, the melting point is reported as 93 to 106 °C.
For `N#CCCCOc1ccc(C(=O)Nc2ccc(-n3nc(-c4cccnc4)cc3C#N)cc2)cn1`, the melting point was 190 to 191 °C.
Work on `CCCCCCCCCCCCCOCCCCO` yielded a melting point of 26 to 29 °C.
`COC1(C)CC(NC(=O)C(F)(F)F)C(O)(NC(=O)C(F)(F)F)C(C)O1` (centres undefined) showed a melting point of 165 to 166 °C.
For `N=C(NO)c1ccc(OCCCOc2c(Cl)cc(OCC=C(Cl)Cl)cc2Cl)cc1`, the melting point was 144 to 146 °C.
With `COc1cccc2c1cc(C=O)n2Cc1ccccc1` the melting point was 130 to 131 °C.
Work on `CC[C@@H]1COC(=O)N1c1nc(-c2ccc(C#N)cc2)cs1` yielded a melting point of 153 to 157 °C.
For `O=C(O)Cn1c(=O)c(=O)[nH]c2ccc3ccc(-n4ccc(CN5CCc6ccccc6C5)c4)cc3c21`, the melting point was > 250 °C.
`CCCCOCCOc1ccc(-c2cc3c4c(c2)CCN4CCCC(C(=O)O)=C3)cc1` showed a melting point of 217 to 218 °C.
Compound `CCC(COC)n1cc(Cl)nc(N2CCc3cc(OC)cc(Cl)c32)c1=O` (centres undefined) has a melting point of 126 to 128 °C.
`COc1ccc(NC(=O)C23CC4CC(CC(C4)C2)C3)cc1OC` gave a melting point of 224 to 226 °C.
`CC=C1CC2C3CCc4cc(OC)ccc4C3CCC2(CC)C1=O` (centres undefined) gave a melting point of 155 to 157 °C.
Work on `Cc1cc(-c2cccc([N+](=O)[O-])c2)c2ccccc2n1` yielded a melting point of 157 °C.
`Cc1ccc(C(=O)c2cc(-c3ccncc3)c(N3CCOCC3)s2)cc1` gave a melting point of 144 to 145 °C.
Compound `Cc1noc(C)c1CN1CC2(COc3cc4c(cc32)OCO4)c2ccccc21` (centres undefined) has a melting point of 165 to 167 °C.
In the case of `COc1c(Cl)cc(NC(=O)OC(C)(C)C)cc1Cl`, the melting point is reported as 115 to 116 °C.
In the case of `CC(C)Cn1c(=O)[nH]c2c(C(N)=O)nc(-c3cccc(O)c3)nc21`, the melting point is reported as 374 to 376 °C.
For `COc1ccccc1NC(=O)Nc1nc(Nc2ccc3ccccc3c2)nc(N(CCC(=O)O)Cc2ccc(Cl)c(Cl)c2)n1`, the melting point was 115 to 120 °C.
`COc1ccccc1Oc1c(NS(=O)(=O)c2ccc(C(C)(C)C)cc2)nc(OCCO)nc1OCCOc1ncc(Br)cn1` showed a melting point of 73.5 to 77 °C.
For `CCOc1nn(-c2ccccn2)cc1CCCOc1cccc(OC(C)(C)C(=O)O)c1`, the melting point was 99 to 101 °C.
In the case of `COc1cccc(CN2CCC(n3c(C)c(-c4ccccc4)[nH]c3=O)CC2)c1`, the melting point is reported as 227 to 228 °C.
`OCc1cc(-c2ccccc2)cs1` showed a melting point of 112 to 113 °C.
`CC(CCCl)C(=O)Nc1scc(C(C)(C)C)c1C#N` (centres undefined) gave a melting point of 115 to 116 °C.
In the case of `CCCOc1ccccc1-c1nc(NCC)cc(=O)[nH]1`, the melting point is reported as 187 to 188 °C.
With `O=C(Cc1cccc([N+](=O)[O-])c1)c1c(O)c2cccnc2n(-c2ccccc2)c1=O` the melting point was 157 to 161 °C.
For `CCOC(=O)c1cccc(-c2coc3c(C)c(O)ccc3c2=O)c1`, the melting point was 222 °C.
`C[C@@H]1C(=O)N(CO)Cc2ccccc2[C@@H]1C` (relative stereo) showed a melting point of 91 to 92 °C.
`CC(C)c1ccc(N(Cc2ccc(N(C)C)cc2)C(=O)C2CCOc3ccccc32)cc1` (centres undefined) gave a melting point of 110 to 112 °C.
`O=C1CC(c2cccc(-n3ccnc3)c2)=Nc2ccc(-c3ccc(OCc4ccccc4)nc3)cc2N1` showed a melting point of 225 to 231 °C.
